Measurements as given in ChEMBL document CHEMBL1909046, “DrugMatrix in vitro pharmacology data”.

How the values were obtained:
Cytochrome P450 3A4 = Cytochrome P450 3A4 (Homo sapiens, UniProt P08684); settings: bti-tn-5b1-4; further: in other assays of this panel Not Active means under 50% inhibition at 10 µM
Cytochrome P450 2C19 = Cytochrome P450 2C19 (Homo sapiens, UniProt P33261); settings: bti-tn-5b1-4; further: in other assays of this panel Not Active means under 50% inhibition at 10 µM
Interstitial collagenase = target: T1, Interstitial collagenase (Homo sapiens, UniProt P03956); test: biochemical; type: tissue-based, Rheumatoid synovial fibroblasts;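 further: MMP-1 enzyme inhibition assay using a peptide substrate; in other assays of this panel Not Active means under 50% inhibition at 10 µM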
T1 sequence (P03956 whole entry): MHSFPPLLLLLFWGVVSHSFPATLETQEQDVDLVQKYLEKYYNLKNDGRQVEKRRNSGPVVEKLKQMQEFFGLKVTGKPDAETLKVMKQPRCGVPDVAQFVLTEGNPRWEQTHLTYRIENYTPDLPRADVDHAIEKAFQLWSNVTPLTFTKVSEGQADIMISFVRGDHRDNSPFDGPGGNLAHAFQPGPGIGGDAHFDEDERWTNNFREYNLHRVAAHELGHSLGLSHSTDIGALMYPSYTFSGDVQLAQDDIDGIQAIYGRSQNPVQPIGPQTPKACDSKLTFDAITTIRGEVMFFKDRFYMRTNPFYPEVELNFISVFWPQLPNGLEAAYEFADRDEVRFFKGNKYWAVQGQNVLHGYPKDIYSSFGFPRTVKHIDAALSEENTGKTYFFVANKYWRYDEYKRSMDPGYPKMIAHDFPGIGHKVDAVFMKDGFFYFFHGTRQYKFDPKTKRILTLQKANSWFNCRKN

Thromboxane-A synthase = target: T2, Thromboxane-A synthase (Homo sapiens, UniProt P24557); test: biochemical; type: tissue-based, Platelet; settings: platelet;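 further: enzyme inhibition assay with PGH2 supplied as substrate; in other assays of this panel Not Active means under 50% inhibition at 10 µM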
T2 sequence (P24557 whole entry): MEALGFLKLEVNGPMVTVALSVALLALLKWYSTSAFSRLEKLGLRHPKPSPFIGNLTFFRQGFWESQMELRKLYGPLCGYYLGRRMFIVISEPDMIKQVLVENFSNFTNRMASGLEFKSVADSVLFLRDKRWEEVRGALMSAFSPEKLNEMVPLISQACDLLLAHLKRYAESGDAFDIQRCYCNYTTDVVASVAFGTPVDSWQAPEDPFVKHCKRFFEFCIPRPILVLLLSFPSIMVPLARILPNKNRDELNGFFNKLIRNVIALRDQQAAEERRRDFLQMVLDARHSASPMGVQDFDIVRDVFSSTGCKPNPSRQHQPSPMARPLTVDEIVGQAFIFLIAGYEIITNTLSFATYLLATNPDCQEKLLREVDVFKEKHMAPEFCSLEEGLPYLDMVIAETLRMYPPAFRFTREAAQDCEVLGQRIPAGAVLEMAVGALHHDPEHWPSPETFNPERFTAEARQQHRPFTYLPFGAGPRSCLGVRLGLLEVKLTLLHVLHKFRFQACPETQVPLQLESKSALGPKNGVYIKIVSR

[1] = DRUGMATRIX: Sodium/nucleoside co-transporter radioligand binding (ligand: nitrobenzylthioinosine); type: cell membranes, Cavia porcellus, Dunkin-Hartley, Cerebral cortex, Membrane; settings: Not Active = under 50% inhibition at 10 µM
Substance-P receptor = Substance-P receptor (Homo sapiens, UniProt P25103); type: cell membranes, CHO, Membrane; settings: cho; further: in other assays of this panel Not Active means under 50% inhibition at 10 µM
[2] = target: T3, C-C chemokine receptor type 4 (Homo sapiens, UniProt P51679); type: cell membranes, Membrane; settings: chem-1; further: in other assays of this panel Not Active means under 50% inhibition at 10 µM
T3 sequence (P51679 whole entry): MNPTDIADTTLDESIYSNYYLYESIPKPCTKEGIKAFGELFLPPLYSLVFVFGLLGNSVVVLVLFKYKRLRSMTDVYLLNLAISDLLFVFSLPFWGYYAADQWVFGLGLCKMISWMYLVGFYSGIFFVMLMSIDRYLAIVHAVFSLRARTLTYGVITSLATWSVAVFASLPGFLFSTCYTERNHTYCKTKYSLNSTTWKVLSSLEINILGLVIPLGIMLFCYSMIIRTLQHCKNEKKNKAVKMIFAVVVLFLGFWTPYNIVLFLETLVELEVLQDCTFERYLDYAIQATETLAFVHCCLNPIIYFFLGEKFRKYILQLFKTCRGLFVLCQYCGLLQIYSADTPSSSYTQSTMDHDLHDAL

Substance-K receptor = target: T4, Substance-K receptor (Homo sapiens, UniProt P21452); type: cell membranes, CHO, Membrane; settings: cho; further: in other assays of this panel Not Active means under 50% inhibition at 10 µM
T4 sequence (P21452 whole entry): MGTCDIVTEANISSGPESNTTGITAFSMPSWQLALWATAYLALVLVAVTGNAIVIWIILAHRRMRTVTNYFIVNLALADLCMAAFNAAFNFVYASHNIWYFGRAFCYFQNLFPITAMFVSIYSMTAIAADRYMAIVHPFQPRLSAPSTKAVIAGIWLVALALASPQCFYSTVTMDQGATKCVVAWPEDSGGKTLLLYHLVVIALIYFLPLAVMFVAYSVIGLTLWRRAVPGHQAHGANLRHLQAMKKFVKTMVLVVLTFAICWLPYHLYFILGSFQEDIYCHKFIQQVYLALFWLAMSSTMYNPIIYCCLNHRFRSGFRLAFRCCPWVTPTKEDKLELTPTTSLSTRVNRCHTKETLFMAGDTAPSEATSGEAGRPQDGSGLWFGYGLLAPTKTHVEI

Substance-P receptor, sequence (P25103 whole entry): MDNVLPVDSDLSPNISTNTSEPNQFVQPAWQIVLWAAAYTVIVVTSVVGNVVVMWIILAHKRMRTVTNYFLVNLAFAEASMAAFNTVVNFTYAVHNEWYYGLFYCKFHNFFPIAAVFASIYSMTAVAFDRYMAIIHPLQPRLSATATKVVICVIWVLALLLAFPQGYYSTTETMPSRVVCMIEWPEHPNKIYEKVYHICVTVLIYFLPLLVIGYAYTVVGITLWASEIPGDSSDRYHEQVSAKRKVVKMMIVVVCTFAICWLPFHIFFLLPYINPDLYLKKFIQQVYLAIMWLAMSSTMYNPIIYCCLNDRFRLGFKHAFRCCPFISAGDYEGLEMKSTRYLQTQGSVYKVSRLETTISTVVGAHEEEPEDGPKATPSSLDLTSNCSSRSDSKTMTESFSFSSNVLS
Cytochrome P450 2C19, sequence (P33261 whole entry): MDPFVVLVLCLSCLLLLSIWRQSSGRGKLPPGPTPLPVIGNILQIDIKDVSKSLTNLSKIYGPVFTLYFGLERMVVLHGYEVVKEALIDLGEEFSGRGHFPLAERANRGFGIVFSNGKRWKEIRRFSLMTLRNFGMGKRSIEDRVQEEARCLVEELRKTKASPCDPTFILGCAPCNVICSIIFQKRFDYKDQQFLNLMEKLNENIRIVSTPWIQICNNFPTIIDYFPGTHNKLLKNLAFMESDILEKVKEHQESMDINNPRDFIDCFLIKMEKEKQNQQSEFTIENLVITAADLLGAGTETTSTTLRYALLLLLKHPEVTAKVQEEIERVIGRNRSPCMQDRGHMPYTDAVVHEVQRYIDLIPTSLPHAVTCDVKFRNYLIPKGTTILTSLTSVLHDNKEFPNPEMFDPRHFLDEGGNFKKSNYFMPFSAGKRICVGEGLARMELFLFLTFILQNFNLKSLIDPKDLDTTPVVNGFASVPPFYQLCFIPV
Cytochrome P450 3A4, sequence (P08684 whole entry): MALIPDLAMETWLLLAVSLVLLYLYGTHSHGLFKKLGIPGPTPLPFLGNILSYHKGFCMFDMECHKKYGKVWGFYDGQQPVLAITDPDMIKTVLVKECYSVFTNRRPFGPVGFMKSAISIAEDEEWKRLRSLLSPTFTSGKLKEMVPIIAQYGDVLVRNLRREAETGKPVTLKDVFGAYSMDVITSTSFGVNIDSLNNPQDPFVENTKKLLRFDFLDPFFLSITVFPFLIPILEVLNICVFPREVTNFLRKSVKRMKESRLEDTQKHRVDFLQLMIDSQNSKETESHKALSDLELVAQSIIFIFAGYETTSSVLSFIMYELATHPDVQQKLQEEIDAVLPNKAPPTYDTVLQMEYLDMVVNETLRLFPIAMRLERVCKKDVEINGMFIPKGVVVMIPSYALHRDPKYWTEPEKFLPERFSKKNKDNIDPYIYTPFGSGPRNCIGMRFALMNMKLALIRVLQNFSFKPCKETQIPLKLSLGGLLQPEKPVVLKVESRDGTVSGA

CCCNC(=O)NS(=O)(=O)c1ccc(Cl)cc1 [CHLORPROPAMIDE]
Not Active: IC50 (Cytochrome P450 3A4) | Ki (Cytochrome P450 3A4) | IC50 (Cytochrome P450 2C19) | Ki (Cytochrome P450 2C19) | IC50 (Interstitial collagenase) | IC50 (Thromboxane-A synthase) | IC50 [1] | Ki [1] | IC50 (Substance-P receptor) | IC50 [2] | IC50 (Substance-K receptor)

CO/N=C(\C(=O)N[C@@H]1C(=O)N2C(C(=O)O)=C(COC(C)=O)CS[C@H]12)c1csc(N)n1 [CEFOTAXIME]
Not Active: IC50 (Cytochrome P450 3A4) | Ki (Cytochrome P450 3A4) | IC50 (Cytochrome P450 2C19) | Ki (Cytochrome P450 2C19) | IC50 (Interstitial collagenase) | IC50 (Thromboxane-A synthase) | IC50 [1] | Ki [1] | IC50 (Substance-P receptor) | IC50 [2] | IC50 (Substance-K receptor)

Nc1cc(-c2ccncc2)c[nH]c1=O [INAMRINONE]
Not Active: IC50 (Cytochrome P450 3A4) | Ki (Cytochrome P450 3A4) | IC50 (Cytochrome P450 2C19) | Ki (Cytochrome P450 2C19) | IC50 (Interstitial collagenase) | IC50 (Thromboxane-A synthase) | IC50 [1] | Ki [1] | IC50 (Substance-P receptor) | IC50 [2] | IC50 (Substance-K receptor)
